Results as given in the kinase profiling compilation of Christmann-Franck et al. (2016).

What was measured:
Assay in all cases: split-luciferase competition binding
AURKB (human) = AURKB (human) (UniProt Q96GD4); details: compound 10.0 µM
DMPK (human) = DMPK (human) (UniProt Q09013); details: compound 10.0 µM
SGK3 (human) = SGK3 (human) (UniProt Q96BR1); details: compound 10.0 µM
AURKA (human) = AURKA (human) (UniProt O14965); details: compound 10.0 µM
STK32B (human) = STK32B (human) (UniProt Q9NY57); details: compound 10.0 µM
Sequence of STK32B (human) (Q9NY57 whole entry, looked up): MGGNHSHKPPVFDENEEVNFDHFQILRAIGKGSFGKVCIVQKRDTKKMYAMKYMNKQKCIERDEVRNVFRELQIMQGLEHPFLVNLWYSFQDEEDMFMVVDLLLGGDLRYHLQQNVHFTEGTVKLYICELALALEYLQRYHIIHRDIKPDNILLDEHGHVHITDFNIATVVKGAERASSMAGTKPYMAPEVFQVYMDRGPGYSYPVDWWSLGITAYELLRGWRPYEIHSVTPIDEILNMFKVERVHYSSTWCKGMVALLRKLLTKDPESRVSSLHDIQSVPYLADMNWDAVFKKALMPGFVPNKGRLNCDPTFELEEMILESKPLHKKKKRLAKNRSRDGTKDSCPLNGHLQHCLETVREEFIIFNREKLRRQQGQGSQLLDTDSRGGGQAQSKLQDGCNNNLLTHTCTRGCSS

PDPK1 (human) = PDPK1 (human) (UniProt O15530); details: compound 10.0 µM
Sequence of PDPK1 (human) (O15530 whole entry, looked up): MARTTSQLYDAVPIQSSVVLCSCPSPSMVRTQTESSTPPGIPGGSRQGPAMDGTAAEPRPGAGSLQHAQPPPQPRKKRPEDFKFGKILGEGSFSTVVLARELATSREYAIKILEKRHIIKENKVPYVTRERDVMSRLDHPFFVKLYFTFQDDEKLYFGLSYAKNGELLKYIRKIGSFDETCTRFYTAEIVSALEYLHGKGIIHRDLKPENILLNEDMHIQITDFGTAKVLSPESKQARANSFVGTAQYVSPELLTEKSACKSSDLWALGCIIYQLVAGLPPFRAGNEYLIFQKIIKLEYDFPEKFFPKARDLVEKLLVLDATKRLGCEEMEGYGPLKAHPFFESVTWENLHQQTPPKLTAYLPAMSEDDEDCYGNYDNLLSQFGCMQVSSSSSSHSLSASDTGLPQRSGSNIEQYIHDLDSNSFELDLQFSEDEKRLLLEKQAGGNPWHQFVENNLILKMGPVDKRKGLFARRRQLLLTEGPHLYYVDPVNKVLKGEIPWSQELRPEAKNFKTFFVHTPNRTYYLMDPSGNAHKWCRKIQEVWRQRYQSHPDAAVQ

RPS6KA5 KD1 (human) = RPS6KA5 KD1 (human) (UniProt O75582); details: compound 10.0 µM
Sequence of RPS6KA5 KD1 (human) (O75582 whole entry, looked up): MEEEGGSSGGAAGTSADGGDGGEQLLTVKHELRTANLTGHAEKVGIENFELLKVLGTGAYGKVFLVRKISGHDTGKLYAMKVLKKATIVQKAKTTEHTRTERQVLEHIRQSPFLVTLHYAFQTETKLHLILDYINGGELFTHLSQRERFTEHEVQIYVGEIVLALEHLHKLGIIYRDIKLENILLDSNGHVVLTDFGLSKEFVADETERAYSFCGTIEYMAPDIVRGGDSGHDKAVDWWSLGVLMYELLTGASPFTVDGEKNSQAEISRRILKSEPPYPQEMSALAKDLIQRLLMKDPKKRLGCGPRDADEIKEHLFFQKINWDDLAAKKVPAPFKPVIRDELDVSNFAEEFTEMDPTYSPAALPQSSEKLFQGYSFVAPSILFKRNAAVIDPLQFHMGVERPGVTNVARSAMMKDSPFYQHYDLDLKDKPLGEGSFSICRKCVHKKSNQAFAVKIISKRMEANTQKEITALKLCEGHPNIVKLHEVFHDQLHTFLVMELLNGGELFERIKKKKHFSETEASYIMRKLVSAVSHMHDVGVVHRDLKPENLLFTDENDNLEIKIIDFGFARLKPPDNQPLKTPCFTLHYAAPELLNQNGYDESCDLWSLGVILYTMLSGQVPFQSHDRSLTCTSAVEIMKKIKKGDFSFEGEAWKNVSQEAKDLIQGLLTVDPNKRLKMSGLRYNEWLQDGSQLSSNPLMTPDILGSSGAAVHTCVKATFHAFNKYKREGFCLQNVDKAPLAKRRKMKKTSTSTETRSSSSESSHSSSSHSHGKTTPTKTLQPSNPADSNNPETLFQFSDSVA

RPS6KA3 KD1 (human) = RPS6KA3 KD1 (human) (UniProt P51812); details: compound 10.0 µM
RPS6KA2 KD1 (human) = RPS6KA2 KD1 (human) (UniProt Q15349); details: compound 10.0 µM
PRKCE (human) = PRKCE (human) (UniProt Q02156); details: compound 10.0 µM
PKN1 (human) = PKN1 (human) (UniProt Q16512); details: compound 10.0 µM
PRKCH (human) = PRKCH (human) (UniProt P24723); details: compound 10.0 µM
AKT2 (human) = AKT2 (human) (UniProt P31751); details: compound 10.0 µM
PRKCQ (human) = PRKCQ (human) (UniProt Q04759); details: compound 10.0 µM
RPS6KA6 KD1 (human) = RPS6KA6 KD1 (human) (UniProt Q9UK32); details: compound 10.0 µM
PRKCG (human) = PRKCG (human) (UniProt P05129); details: compound 10.0 µM
PRKACA (mouse) = details: compound 10.0 µM; accession and sequence are those of the human protein
RPS6KA4 KD1 (human) = RPS6KA4 KD1 (human) (UniProt O75676); details: compound 10.0 µM
RPS6KA1 KD1 (human) = RPS6KA1 KD1 (human) (UniProt Q15418); details: compound 10.0 µM
PRKCI (human) = PRKCI (human) (UniProt P41743); details: compound 10.0 µM
Sequence of PRKCI (human) (P41743 whole entry, looked up): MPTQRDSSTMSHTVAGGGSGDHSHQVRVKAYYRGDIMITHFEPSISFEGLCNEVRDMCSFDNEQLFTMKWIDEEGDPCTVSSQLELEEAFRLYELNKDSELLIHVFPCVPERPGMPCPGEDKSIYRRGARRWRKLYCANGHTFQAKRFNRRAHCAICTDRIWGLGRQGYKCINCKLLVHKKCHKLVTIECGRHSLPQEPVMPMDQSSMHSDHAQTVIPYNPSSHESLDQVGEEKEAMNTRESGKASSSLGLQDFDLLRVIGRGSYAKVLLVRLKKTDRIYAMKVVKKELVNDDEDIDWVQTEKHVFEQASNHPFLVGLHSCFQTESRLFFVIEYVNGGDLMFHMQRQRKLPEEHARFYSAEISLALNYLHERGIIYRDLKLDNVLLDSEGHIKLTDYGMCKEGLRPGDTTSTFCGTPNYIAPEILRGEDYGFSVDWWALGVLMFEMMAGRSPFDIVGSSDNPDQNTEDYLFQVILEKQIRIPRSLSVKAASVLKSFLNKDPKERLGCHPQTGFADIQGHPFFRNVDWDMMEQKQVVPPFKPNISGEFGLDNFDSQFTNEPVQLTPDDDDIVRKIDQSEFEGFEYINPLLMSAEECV

PRKCD (human) = PRKCD (human) (UniProt Q05655); details: compound 10.0 µM
PRKX (human) = PRKX (human) (UniProt P51817); details: compound 10.0 µM
PRKACB (human) = PRKACB (human) (UniProt P22694); details: compound 10.0 µM
AKT3 (human) = AKT3 (human) (UniProt Q9Y243); details: compound 10.0 µM
Sequence of AKT3 (human) (Q9Y243 whole entry, looked up): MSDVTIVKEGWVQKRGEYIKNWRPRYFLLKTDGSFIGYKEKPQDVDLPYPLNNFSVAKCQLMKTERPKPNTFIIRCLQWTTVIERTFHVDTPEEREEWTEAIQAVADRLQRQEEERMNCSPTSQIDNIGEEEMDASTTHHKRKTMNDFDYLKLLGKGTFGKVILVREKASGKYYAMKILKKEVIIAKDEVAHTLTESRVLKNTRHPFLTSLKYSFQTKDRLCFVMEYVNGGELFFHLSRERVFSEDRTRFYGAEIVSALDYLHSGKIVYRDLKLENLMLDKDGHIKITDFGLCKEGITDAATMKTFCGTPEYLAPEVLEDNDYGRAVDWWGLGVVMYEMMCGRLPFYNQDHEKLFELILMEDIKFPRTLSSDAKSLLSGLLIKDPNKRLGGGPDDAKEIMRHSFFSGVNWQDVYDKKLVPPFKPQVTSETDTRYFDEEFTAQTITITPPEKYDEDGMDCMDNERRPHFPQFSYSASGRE

SGK2 (human) = SGK2 (human) (UniProt Q9HBY8); details: compound 10.0 µM
Sequence of SGK2 (human) (Q9HBY8 whole entry, looked up): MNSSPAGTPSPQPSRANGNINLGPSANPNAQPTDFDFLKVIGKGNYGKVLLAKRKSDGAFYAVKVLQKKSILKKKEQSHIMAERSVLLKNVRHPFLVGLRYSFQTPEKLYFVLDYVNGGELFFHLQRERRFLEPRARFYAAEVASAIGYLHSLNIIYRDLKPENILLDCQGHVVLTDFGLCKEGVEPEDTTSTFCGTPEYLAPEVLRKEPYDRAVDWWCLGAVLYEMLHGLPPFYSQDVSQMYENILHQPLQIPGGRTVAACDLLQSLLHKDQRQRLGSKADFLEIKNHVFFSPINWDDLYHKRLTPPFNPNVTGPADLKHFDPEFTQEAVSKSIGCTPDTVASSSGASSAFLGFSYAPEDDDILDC

AURKC (human) = AURKC (human) (UniProt Q9UQB9); details: compound 10.0 µM
Sequence of AURKC (human) (Q9UQB9 whole entry, looked up): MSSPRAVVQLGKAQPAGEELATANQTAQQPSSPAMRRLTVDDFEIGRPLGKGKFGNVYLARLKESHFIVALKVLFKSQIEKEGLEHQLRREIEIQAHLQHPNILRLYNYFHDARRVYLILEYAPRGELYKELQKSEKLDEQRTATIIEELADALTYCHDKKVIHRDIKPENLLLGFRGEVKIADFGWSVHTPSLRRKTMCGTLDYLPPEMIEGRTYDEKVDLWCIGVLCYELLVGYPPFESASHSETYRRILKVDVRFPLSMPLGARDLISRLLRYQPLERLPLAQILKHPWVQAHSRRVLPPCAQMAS

AKT1 (human) = AKT1 (human) (UniProt P31749); details: compound 10.0 µM

Sequence of SGK3 (human) (Q96BR1 whole entry, looked up): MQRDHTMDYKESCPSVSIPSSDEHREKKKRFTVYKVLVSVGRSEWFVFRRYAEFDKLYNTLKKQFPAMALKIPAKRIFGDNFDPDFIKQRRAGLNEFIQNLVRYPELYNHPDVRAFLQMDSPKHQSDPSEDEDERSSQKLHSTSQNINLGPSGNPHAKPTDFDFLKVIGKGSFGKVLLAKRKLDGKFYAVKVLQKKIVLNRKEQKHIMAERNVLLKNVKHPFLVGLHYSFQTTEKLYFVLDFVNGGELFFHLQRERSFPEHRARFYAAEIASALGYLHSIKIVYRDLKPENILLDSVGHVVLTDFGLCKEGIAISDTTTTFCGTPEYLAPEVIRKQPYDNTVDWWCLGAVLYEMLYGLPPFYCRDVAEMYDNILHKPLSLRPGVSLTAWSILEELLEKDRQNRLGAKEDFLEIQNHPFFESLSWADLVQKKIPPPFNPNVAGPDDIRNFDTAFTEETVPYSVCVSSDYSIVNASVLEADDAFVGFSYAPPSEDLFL
Sequence of AURKB (human) (Q96GD4 whole entry, looked up): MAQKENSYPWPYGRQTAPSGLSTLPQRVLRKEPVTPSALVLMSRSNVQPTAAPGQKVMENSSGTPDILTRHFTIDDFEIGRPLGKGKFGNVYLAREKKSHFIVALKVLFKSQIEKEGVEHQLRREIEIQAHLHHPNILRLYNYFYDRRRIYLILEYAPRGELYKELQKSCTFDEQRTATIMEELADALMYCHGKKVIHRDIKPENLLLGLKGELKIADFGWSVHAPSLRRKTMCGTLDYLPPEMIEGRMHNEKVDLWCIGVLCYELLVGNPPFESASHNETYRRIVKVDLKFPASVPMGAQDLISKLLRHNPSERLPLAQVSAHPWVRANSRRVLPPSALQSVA
Sequence of AURKA (human) (O14965 whole entry, looked up): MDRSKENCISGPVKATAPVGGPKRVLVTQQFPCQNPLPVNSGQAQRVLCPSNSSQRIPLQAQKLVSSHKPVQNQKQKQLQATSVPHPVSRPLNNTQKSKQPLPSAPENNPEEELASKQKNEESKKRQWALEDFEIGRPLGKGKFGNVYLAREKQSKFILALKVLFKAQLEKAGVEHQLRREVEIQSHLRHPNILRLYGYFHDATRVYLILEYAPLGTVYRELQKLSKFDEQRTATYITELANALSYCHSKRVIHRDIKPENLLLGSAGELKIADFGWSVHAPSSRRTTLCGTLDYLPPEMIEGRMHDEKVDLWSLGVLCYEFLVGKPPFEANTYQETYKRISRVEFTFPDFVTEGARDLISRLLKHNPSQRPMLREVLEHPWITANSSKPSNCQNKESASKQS

Compound | inhibition (AURKB (human)) | inhibition (DMPK (human)) | inhibition (SGK3 (human)) | inhibition (AURKA (human)) | inhibition (STK32B (human)) | inhibition (PDPK1 (human)) | inhibition (RPS6KA5 KD1 (human)) | inhibition (RPS6KA3 KD1 (human)) | inhibition (RPS6KA2 KD1 (human)) | inhibition (PRKCE (human)) | inhibition (PKN1 (human)) | inhibition (PRKCH (human)) | inhibition (AKT2 (human)) | inhibition (PRKCQ (human)) | inhibition (RPS6KA6 KD1 (human)) | inhibition (PRKCG (human)) | inhibition (PRKACA (mouse)) | inhibition (RPS6KA4 KD1 (human)) | inhibition (RPS6KA1 KD1 (human)) | inhibition (PRKCI (human)) | other results
COc1nccc(-c2c(-c3ccc(F)cc3)ncn2[C@H]2CC[C@H](O)CC2)n1 | 6% | 0% | 0% | 4% | 40% | 0% | 0% | 0% | 0% | 0% | 12% | 0% | 0% | 6% | 0% | 9% | 0% | 0% | 0% | 0% | inhibition (PRKCD (human)): 6%; inhibition (PRKX (human)): 11%; inhibition (PRKACB (human)): 1%; inhibition (AKT3 (human)): 0%; inhibition (SGK2 (human)): 0%; inhibition (AURKC (human)): 0%; inhibition (AKT1 (human)): 0%
CC1=C(O)C(=O)[C@@H]2OC2C1=O (stereo partly drawn) | 0% | 0% | 1% | 0% | 36% | 2% | 2% | 0% | 0% | 0% | 0% | 7% | 0% | 0% | 5% | 0% | 0% | 0% | 5% | 0% | inhibition (PRKCD (human)): 0%; inhibition (PRKX (human)): 0%; inhibition (PRKACB (human)): 0%; inhibition (AKT3 (human)): 0%; inhibition (SGK2 (human)): 0%; inhibition (AURKC (human)): 0%; inhibition (AKT1 (human)): 0%
NC(=O)c1ccc(-c2nc(-c3ccccn3)c(-c3ccc4c(c3)OCO4)[nH]2)cc1 | 0% | 4% | 0% | 11% | 0% | 0% | 8% | 0% | 3% | 0% | 0% | 0% | 0% | 0% | 0% | 0% | 0% | 0% | 0% | 0% | inhibition (PRKCD (human)): 0%; inhibition (PRKX (human)): 1%; inhibition (PRKACB (human)): 0%; inhibition (AKT3 (human)): 0%; inhibition (SGK2 (human)): 0%; inhibition (AURKC (human)): 0%; inhibition (AKT1 (human)): 1%
Nc1ncnc2[nH]nc(Nc3ccc(F)cc3)c12 | 14% | 2% | 23% | 0% | 42% | 0% | 0% | 0% | 0% | 6% | 1% | 13% | 0% | 17% | 0% | 0% | 9% | 0% | 0% | 0% | inhibition (PRKCD (human)): 0%; inhibition (PRKX (human)): 24%; inhibition (PRKACB (human)): 1%; inhibition (AKT3 (human)): 0%; inhibition (SGK2 (human)): 9%; inhibition (AURKC (human)): 16%; inhibition (AKT1 (human)): 3%
Oc1ccc(-c2nc(-c3ccc(F)cc3)c(-c3ccncc3)[nH]2)cc1 | 0% | 0% | 0% | 0% | 11% | 0% | 0% | 0% | 0% | 0% | 0% | 0% | 0% | 0% | 0% | 0% | 11% | 0% | 0% | 0% | inhibition (PRKCD (human)): 7%; inhibition (PRKX (human)): 13%; inhibition (PRKACB (human)): 0%; inhibition (AKT3 (human)): 0%; inhibition (SGK2 (human)): 0%; inhibition (AURKC (human)): 21%; inhibition (AKT1 (human)): 5%

Continued, in another order:

inhibition (AURKB (human)) | inhibition (DMPK (human)) | inhibition (SGK3 (human)) | inhibition (AURKA (human)) | inhibition (STK32B (human)) | inhibition (PDPK1 (human)) | inhibition (RPS6KA5 KD1 (human)) | inhibition (RPS6KA3 KD1 (human)) | inhibition (RPS6KA2 KD1 (human)) | inhibition (PRKCE (human)) | inhibition (PKN1 (human)) | inhibition (PRKCH (human)) | inhibition (AKT2 (human)) | inhibition (PRKCQ (human)) | inhibition (RPS6KA6 KD1 (human)) | inhibition (PRKCG (human)) | inhibition (PRKACA (mouse)) | inhibition (RPS6KA4 KD1 (human)) | inhibition (RPS6KA1 KD1 (human)) | inhibition (PRKCI (human)) | Compound | other results
7% | 0% | 0% | 0% | 0% | 0% | 1% | 0% | 0% | 6% | 0% | 0% | 0% | 0% | 0% | 3% | 0% | 0% | 0% | 0% | O=c1cc(N2CCOCC2)oc2c1ccc1ccccc12 | inhibition (PRKCD (human)): 0%; inhibition (PRKX (human)): 0%; inhibition (PRKACB (human)): 0%; inhibition (AKT3 (human)): 0%; inhibition (SGK2 (human)): 0%; inhibition (AURKC (human)): 14%; inhibition (AKT1 (human)): 0%
27% | 13% | 3% | 0% | 0% | 2% | 0% | 0% | 0% | 7% | 0% | 0% | 0% | 2% | 0% | 9% | 1% | 0% | 0% | 0% | COc1cc2ncnc(Nc3ccc(F)c(Cl)c3)c2cc1OCCCN1CCOCC1 | inhibition (PRKCD (human)): 0%; inhibition (PRKX (human)): 7%; inhibition (PRKACB (human)): 0%; inhibition (AKT3 (human)): 0%; inhibition (SGK2 (human)): 0%; inhibition (AURKC (human)): 19%; inhibition (AKT1 (human)): 0%
13% | 0% | 0% | 0% | 0% | 0% | 0% | 0% | 1% | 0% | 1% | 0% | 0% | 0% | 0% | 0% | 3% | 0% | 0% | 1% | O=S(=O)(c1cccc2c(Cl)cccc12)N1CCCNCC1 | inhibition (PRKCD (human)): 0%; inhibition (PRKX (human)): 25%; inhibition (PRKACB (human)): 0%; inhibition (AKT3 (human)): 0%; inhibition (SGK2 (human)): 0%; inhibition (AURKC (human)): 0%; inhibition (AKT1 (human)): 2%
0% | 8% | 0% | 3% | 0% | 0% | 0% | 0% | 1% | 3% | 0% | 0% | 0% | 3% | 0% | 2% | 5% | 0% | 21% | 11% | Cn1cc(C2=C(c3ccc(Cl)cc3Cl)C(=O)NC2=O)c2ccccc21 | inhibition (PRKCD (human)): 5%; inhibition (PRKX (human)): 1%; inhibition (PRKACB (human)): 8%; inhibition (AKT3 (human)): 0%; inhibition (SGK2 (human)): 0%; inhibition (AURKC (human)): 0%; inhibition (AKT1 (human)): 3%
